Data taken from patent publication US20190375708A1 (VenatoRx Pharmaceuticals, Inc., priority 2018, published 2019).

Assays:
[1] = In vitro cytotoxicity assay (MTT cell viability) in HepG2 cells; assay type: cell-based, human; conditions: human
Procedure, shortened: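 Viability measured by MTT conversion, absorbance at 492 nm, as percent of vehicle-treated wells. Compounds spanned 30 μM to 1.0 nM in half-log steps over a 7-day exposure of parental HepG2 cells; CC50 derived by 4-parameter curve fit.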

[2] = tested on: HBV replication in HepAD38 cells; test: Anti-HBV replication assay in HepAD38 cells (QPCR of extracellular HBV DNA); assay type: cell-based, HBV (genotype D, serotype ayw); conditions: Hepatitis B virus, 168 h, 7 days incubation, extracellular HBV DNA by QPCR, read-out: Anti-HBV EC50
Procedure, shortened: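 Read-out is QPCR of HBV DNA released into culture supernatant, converted to percent of vehicle control and fitted to give EC50. Cells were HepAD38 induced by tetracycline removal and dosed […] for 7 days.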

Row | SMILES | CC50 at 7 days [1] [nM] | EC50 [2] [nM]
1 | CNC(=O)C(=O)c1c(C)c(C(=O)Nc2ccc(F)c(C)c2)c(C)n1C [Example 242, N-(4-fluoro-3-methylphenyl)-1,2,4-trimethyl-5-(2-(methylamino)-2-oxoacetyl)-1H-pyrrole-3-carboxamide] | > 30000 | 50 to 499
2 | Cc1cc(NC(=O)c2c(C)c(C(=O)C(=O)N[C@@]3(C)CC[C@@H](O)C3)n(C)c2C)ccc1F [Example 722, N-(4-fluoro-3-methylphenyl)-5-(2-(((1S,3R)-3-hydroxy-1-methylcyclopentyl)amino)-2-oxoacetyl)-1,2,4-trimethyl-1H-pyrrole-3-carboxamide] | > 30000 | < 50
3 | Cc1c(C(=O)Nc2nccs2)c2n(c1C(=O)C(=O)NC(C)(C)CO)CCCC2 [Example 759, 3-(2-((1-hydroxy-2-methylpropan-2-yl)amino)-2-oxoacetyl)-2-methyl-N-(thiazol-2-yl)-5,6,7,8-tetrahydroindolizine-1-carboxamide] | > 30000 | 50 to 499
4 | CCn1c(C)c(C(=O)Nc2ccc(F)c(C)c2)c(C)c1C(=O)C(=O)NC(C)(C)C(N)=O [Example 99, 5-(2-((1-amino-2-methyl-1-oxopropan-2-yl)amino)-2-oxoacetyl)-1-ethyl-N-(4-fluoro-3-methylphenyl)-2,4-dimethyl-1H-pyrrole-3-carboxamide] | > 30000 | 50 to 499
5 | CC(C)(CO)NC(=O)C(=O)c1cc(C(=O)Nc2cc(F)c(F)c(F)c2)c2n1CCCC2 [Example 424, 3-(2-((1-hydroxy-2-methylpropan-2-yl)amino)-2-oxoacetyl)-N-(3,4,5-trifluorophenyl)-5,6,7,8-tetrahydroindolizine-1-carboxamide] | > 30000 | 50 to 499
6 | Cc1cc(NC(=O)c2c(C)c(C(=O)C(=O)NCC(C)(C)CO)n(C)c2C)ccc1F [Example 65, N-(4-fluoro-3-methylphenyl)-5-(2-((3-hydroxy-2,2-dimethylpropyl)amino)-2-oxoacetyl)-1,2,4-trimethyl-1H-pyrrole-3-carboxamide] | > 30000 | < 50
7 | Cc1cc(NC(=O)c2c(Cl)c(C(=O)C(=O)NC(C)(C)C)n(C)c2C)cnc1F [Example 371, 5-(2-(tert-butylamino)-2-oxoacetyl)-4-chloro-N-(6-fluoro-5-methylpyridin-3-yl)-1,2-dimethyl-1H-pyrrole-3-carboxamide] | > 30000 | 50 to 499
8 | Cc1noc([C@@H](NC(=O)C(=O)c2c(Cl)c(C(=O)Nc3ccc(F)c(C)c3)c3n2CCC3)C(C)C)n1 [Example 543, (S)-6-chloro-N-(4-fluoro-3-methylphenyl)-5-(2-((2-methyl-1-(3-methyl-1,2,4-oxadiazol-5-yl)propyl)amino)-2-oxoacetyl)-2,3-dihydro-1H-pyrrolizine-7-carboxamide] | > 30000 | < 50
9 | Cc1cc(NC(=O)c2c(C)c(C(=O)C(=O)NCC(C)(C)O)n(C)c2Cl)ccc1F [Example 388, 2-chloro-N-(4-fluoro-3-methylphenyl)-5-(2-((2-hydroxy-2-methylpropyl)amino)-2-oxoacetyl)-1,4-dimethyl-1H-pyrrole-3-carboxamide] | 5000 to 30000 | > 1000
10 | Cc1cc(NC(=O)C(=O)c2c(C)c(C(=O)Nc3ccc(F)c(C)c3)c(C)n2C)on1 [Example 304, N-(4-fluoro-3-methylphenyl)-1,2,4-trimethyl-5-(2-((3-methylisoxazol-5-yl)amino)-2-oxoacetyl)-1H-pyrrole-3-carboxamide] | 5000 to 30000 | < 50
11 | Cc1cc(NC(=O)c2c(C)c(C(=O)C(=O)N[C@H]3CC[C@@H](O)C3)n(C)c2C)ccc1F [Example 245, N-(4-fluoro-3-methylphenyl)-5-(2-(((1S,3R)-3-hydroxycyclopentyl)amino)-2-oxoacetyl)-1,2,4-trimethyl-1H-pyrrole-3-carboxamide] | > 30000 | < 50
12 | Cc1noc([C@H](NC(=O)C(=O)c2c(Cl)c(C(=O)Nc3ccc(F)c(C)c3)c3n2CCC3)C(C)C)n1 [Example 544, (R)-6-chloro-N-(4-fluoro-3-methylphenyl)-5-(2-((2-methyl-1-(3-methyl-1,2,4-oxadiazol-5-yl)propyl)amino)-2-oxoacetyl)-2,3-dihydro-1H-pyrrolizine-7-carboxamide] | > 30000 | < 50
13 | O=C(NC1(CO)CC(F)(F)C1)C(=O)c1c(Cl)c(C(=O)Nc2ccc(F)c(Cl)c2)c2n1CCC2 [Example 580, 6-chloro-N-(3-chloro-4-fluorophenyl)-5-(2-((3,3-difluoro-1-(hydroxymethyl)cyclobutyl)amino)-2-oxoacetyl)-2,3-dihydro-1H-pyrrolizine-7-carboxamide] | 5000 to 30000 | < 50
14 | Cc1cc(NC(=O)c2c(C)c(C(=O)C(=O)NC3(C)CCS(=O)(=O)CC3)n(C)c2C)ccc1F [Example 622, N-(4-fluoro-3-methylphenyl)-1,2,4-trimethyl-5-(2-((4-methyl-1,1-dioxidotetrahydro-2H-thiopyran-4-yl)amino)-2-oxoacetyl)-1H-pyrrole-3-carboxamide] | > 30000 | < 50
15 | CCn1c(C)c(C(=O)Nc2ccc(F)c(C)c2)c(C)c1C(=O)C(=O)NC(C)(C)C [Example 96, 5-(2-(tert-butylamino)-2-oxoacetyl)-1-ethyl-N-(4-fluoro-3-methylphenyl)-2,4-dimethyl-1H-pyrrole-3-carboxamide] | > 30000 | < 50
16 | O=C(N[C@H]1C[C@H](O)C1)C(=O)c1c(Cl)c(C(=O)Nc2ccc(F)c(F)c2)c2n1CCCC2 [Example 533, 2-chloro-N-(3,4-difluorophenyl)-3-(2-(((1r,3r)-3-hydroxycyclobutyl)amino)-2-oxoacetyl)-5,6,7,8-tetrahydroindolizine-1-carboxamide] | > 30000 | 500 to 1000
17 | Cc1cc(NC(=O)c2c(C)c(C(=O)C(=O)NCc3cnc(N)s3)n(C)c2C)ccc1F [Example 97, 5-(2-(((2-aminothiazol-5-yl)methyl)amino)-2-oxoacetyl)-N-(4-fluoro-3-methylphenyl)-1,2,4-trimethyl-1H-pyrrole-3-carboxamide] | > 30000 | < 50
18 | Cc1cc(NC(=O)c2c(C)c(C(=O)C(=O)Nc3ncc(C(F)(F)F)s3)n(C)c2C)ccc1F [Example 317, N-(4-fluoro-3-methylphenyl)-1,2,4-trimethyl-5-(2-oxo-2-((5-(trifluoromethyl)thiazol-2-yl)amino)acetyl)-1H-pyrrole-3-carboxamide] | 5000 to 30000 | > 1000
19 | CO[C@H]1CC[C@@H](NC(=O)C(=O)c2c(C)c(C(=O)Nc3ccnc(Cl)c3)c(C)n2C)CC1 [Example 345, N-(2-chloropyridin-4-yl)-5-(2-(((1s,4s)-4-methoxycyclohexyl)amino)-2-oxoacetyl)-1,2,4-trimethyl-1H-pyrrole-3-carboxamide] | > 30000 | < 50
20 | Cc1cc(NC(=O)c2cc(C(=O)C(=O)NC(C)(C)C)n3c2CCCC3)cc(F)c1F [Example 397, 3-(2-(tert-butylamino)-2-oxoacetyl)-N-(3,4-difluoro-5-metthylphenyl)-5,6,7,8-tetrahydroindolizine-1-carboxamide] | 5000 to 30000 | 50 to 499
